Where a name gives a salt, the structure may show the parent alone.
System: von Bezold-Jarisch reflex evoked by 5-HT
Experiment: Antagonism of the von Bezold-Jarisch reflex evoked by 5-HT in the anaesthetised rat
Type: in vivo
Conditions: iv, male rats, urethane anaesthesia, 5-HT usually 6 μg/kg i.v., heart rate, read-out: ED50 (concentration required to reduce the 5-HT-evoked response to 50% of the control response)
Experimental: Antagonism of the von Bezold-Jarisch reflex
The compounds were evaluated for antagonism of the von Bezold-Jarisch reflex evoked by 5-HT in the anaesthetised rat according to the following method:
Male rats 250≥350 g, were anaesthetised with urethane (1.25 g/kg intraperitoneally) and blood pressure and heart rate recorded as described by Fozard J. R. et al., J. Cardiovasc. Pharmacol. 2, 229-245 (1980). A submaximal dose of 5-HT (usually 6 μg/kg) was given repeatedly by the intravenous route and changes in heart rate quantified. Compounds were given intravenously and the concentration required to reduce the 5-HT-evoked response to 50% of the control response (ED50) was then determined.

CC1(C)CN(C(=O)CCc2c[nH]cn2)c2ccccc21 [Example E1, monohydrochloride]
ED50: 4.2 µg/kg

Source: patent publication US4918079A, “Imidazole derivatives as 5-HT3 receptor antagonists” (Beecham Group p.l.c., priority 1987, dated 1990)
